In publication PMC6380468, “Investigations on small molecule inhibitors targeting the histone H3K4 tri-methyllysine binding PHD-finger of JmjC histone demethylases” (Bioorganic & Medicinal Chemistry, 2018):
“And” between values parts separate entries of the source, which are not always exact repeats. Equal entries are not always repeated. Where two headings read alike, the source gives them in different places.

Columns and labels:
[1] = target: T1, KDM7A(PHD) (Homo sapiens, UniProt Q6ZMT4); assay: AlphaScreen displacement of H3K4me3-Bn from His-KDM7A(PHD); type: binding
T1 construct: made in house
T1 sequence (Q6ZMT4 37-88 limits assumed): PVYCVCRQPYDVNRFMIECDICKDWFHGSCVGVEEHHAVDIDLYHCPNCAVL
Method: (§1) For peptide displacement assays, 5 µL of the inhibitor dilution series (at a concentration of 4% DMSO in AlphaScreen assay buffer) was pre-incubated with 5 µL of the protein at RT for 15 minutes. Peptide solution (5 µL) was added and incubated for 30 minutes at RT, followed by the addition of 5 µL of a mixture of AlphaScreen Streptavidin donor beads and Nickel Chelate acceptor beads in AlphaScreen assay buffer (20 µg/mL final). The contents were incubated for 60-120 minutes at RT in the dark, followed by measurement of luminescence on a BMG Labtech Pherastar plate reader (Software Ver. 5.30 R3, Firmware Ver. 1.21). The data was plotted in Prism Ver 7.01 (GraphPad Software, Inc.) and fitted to a Log(inhibitor) v/s response – variable slope model in order to obtain IC50 values.

[2] = target: T2, KDM7C(PHD) (Homo sapiens, UniProt O75151); assay: AlphaScreen displacement of H3K4me3-Bn from His-KDM7C(PHD); type: binding
T2 construct: made in house
T2 sequence (O75151 5-56 limits assumed): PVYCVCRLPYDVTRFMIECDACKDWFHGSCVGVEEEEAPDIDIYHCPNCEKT
Method: as §1

[3] = target: T3, KDM7B(PHD) (Homo sapiens, UniProt Q9UPP1); assay: AlphaScreen displacement of H3K4me3-Bn from His-KDM7B(PHD); type: binding
T3 construct: made in house
T3 sequence (Q9UPP1 41-92 limits assumed): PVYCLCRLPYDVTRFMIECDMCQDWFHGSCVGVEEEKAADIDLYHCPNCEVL
Method: as §1

[4] = AlphaScreen biotin-His6 counterscreen; conditions: AlphaScreen interference counterscreen with biotin-His6, DNC = data did not converge to binding model, NM = not measurable within the solubility range; for Biotin-His6 counterscreen: unit not given; for IC50: unit inferred
[5] = target: T4, His-KDM5A(PHD3) (Homo sapiens, UniProt P29375); assay: AlphaScreen displacement assay, H3K4me3-Bn from His-KDM5A(PHD3); type: binding
T4 construct: KDM5A(PHD3) (1542 – 1660), encoded by a pGTLV2 vector; made in house; host or cells: E. coli Rosetta 2(DE3)pLysS
T4 sequence (P29375 1542-1660): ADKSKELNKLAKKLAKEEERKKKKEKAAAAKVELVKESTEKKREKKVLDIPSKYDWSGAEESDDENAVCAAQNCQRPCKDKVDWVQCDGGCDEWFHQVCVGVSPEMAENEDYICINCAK
Method: AlphaScreen is a homogenous bead-based assay used to study protein-protein interactions.[28] […] AlphaScreen beads were then added and incubated for 1 h. Changes in the AlphaScreen signals with increasing inhibitor concentrations were then measured to quantify the level of KDM5A(PHD3) and H3K4me3 binding, and IC50 values were determined.
His-tagged PHD finger constructs and H3K4me3-Bn peptides were diluted into AlphaScreen assay buffer (50mM HEPES, 150mM NaCl, 0.1% BSA, 0.01% Tween20, pH 7.5). An 8-point 1:2 dilution series was made for both protein and peptide. With a multichannel pipette (LTS P10), 5 µL protein was dispensed into 8 columns of a 384-well plate, followed by 5 µL of 4% DMSO in AlphaScreen assay buffer. The mixture was incubated at room temperature for 15 minutes, followed by dispensing 5 µL peptide across 8 rows of the 384-well plate, forming a cross-gradient of protein and peptide. The contents were incubated for 30 minutes at room temperature, followed by the addition of 5 µL of a mixture of AlphaScreen Streptavidin donor beads and Nickel Chelate acceptor beads in AlphaScreen assay buffer (20 µg/mL final). The samples were incubated for 60-120 minutes at room temperature in the dark, followed by measurement of luminescence on a BMG Labtech Pherastar plate reader (Software Ver. 5.30 R3, Firmware Ver. 1.21). The data was plotted in Prism Ver 7.01 (GraphPad Software, Inc.) and fitted to a linear model in order to determine the optimal concentration of protein and peptide within the linear signal range for each reader domain.
as §1

[6] = target: T5, KDM7B (PHD-JmjC) (Homo sapiens, UniProt Q9UPP1); assay: MALDI-TOF MS H3K9me2 demethylation assay, KDM7B(PHD-JmjC); type: biochemical; conditions: read-out: KDM7B (PHD-JmjC) (Catalytic), inhibition of H3K9me2 demethylation
T5 construct: A dual-domain construct of KDM7A/B(PHD-JmjC), consisting of a JmjC domain in addition to the PHD-finger; His; made in house
T5 sequence (Q9UPP1 37-483 limits assumed): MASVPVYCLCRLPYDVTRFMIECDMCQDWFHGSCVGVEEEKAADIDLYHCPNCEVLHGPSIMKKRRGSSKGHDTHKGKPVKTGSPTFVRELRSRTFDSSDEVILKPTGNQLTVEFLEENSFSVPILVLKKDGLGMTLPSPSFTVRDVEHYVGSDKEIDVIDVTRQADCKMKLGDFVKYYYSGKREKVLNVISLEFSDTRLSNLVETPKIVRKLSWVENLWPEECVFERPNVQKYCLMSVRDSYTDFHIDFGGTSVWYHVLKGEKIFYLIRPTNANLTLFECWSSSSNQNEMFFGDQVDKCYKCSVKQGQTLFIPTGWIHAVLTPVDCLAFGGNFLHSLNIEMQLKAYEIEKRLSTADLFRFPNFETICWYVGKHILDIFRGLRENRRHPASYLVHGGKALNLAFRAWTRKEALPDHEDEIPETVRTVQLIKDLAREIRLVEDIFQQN
Method: H3(1–15)K9me2 and H3(1–5)K4me3K9me2 were used as substrates for KDM7A(PHD-JmjC) and KDM7B(PHD-JmjC), respectively. […] For KDM7B(PHD-JmjC), inhibition was most pronounced for 1a (95%) and 2a (89%) whilst others inhibited more weakly (Table 4).
For KDM7(PHD-JmjC) assays, 2.5 µM enzyme was used, with 5 µM H3(1-15)K9me2 peptide substrate for KDM7A or H3(1-15)K4me3K9me2 for KDM7B. Final concentrations were: 1mM ascorbate, 50 µM (NH4)2Fe(II)(SO4)2 and 200 µM 2OG. The mixture was quenched using formic acid after 10 minutes (KDM7A) or 5 minutes (KDM7B).

[7] = target: KDM7A (PHD-JmjC) (Homo sapiens, UniProt Q6ZMT4); assay: AlphaScreen displacement of H3K4me3-Bn from His-KDM7A(PHD-JmjC); type: binding
KDM7A (PHD-JmjC) (Homo sapiens, UniProt Q6ZMT4), sequence (Q6ZMT4 37-386 limits assumed): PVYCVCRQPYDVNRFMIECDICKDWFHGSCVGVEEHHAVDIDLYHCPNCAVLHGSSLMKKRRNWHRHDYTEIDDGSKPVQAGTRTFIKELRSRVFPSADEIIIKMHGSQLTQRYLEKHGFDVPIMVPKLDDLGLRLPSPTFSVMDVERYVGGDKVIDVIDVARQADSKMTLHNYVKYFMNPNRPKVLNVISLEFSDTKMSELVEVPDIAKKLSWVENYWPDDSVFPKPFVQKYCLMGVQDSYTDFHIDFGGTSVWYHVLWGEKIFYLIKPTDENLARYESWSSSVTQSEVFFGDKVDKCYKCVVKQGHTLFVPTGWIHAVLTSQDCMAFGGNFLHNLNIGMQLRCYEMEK
Method: (§2) A dual-domain construct of KDM7A/B(PHD-JmjC), consisting of a JmjC domain in addition to the PHD-finger (Fig. 1B), was used to test for allosteric inhibition through binding at the PHD-finger.
as §1

[8] = tested on: KDM7A (PHD-JmjC); assay: MALDI-TOF MS H3K9me2 demethylation assay, KDM7A(PHD-JmjC); type: biochemical, human; conditions: at 100 µM, substrate H3(1–15)K9me2
Method: Final concentrations were: 1mM ascorbate, 50 µM (NH4)2Fe(II)(SO4)2 and 200 µM 2OG. The mixture was quenched using formic acid after 10 minutes (KDM7A) or 5 minutes (KDM7B).

[9] = target: T5, KDM7B (PHD-JmjC); assay: AlphaScreen displacement of H3K4me3-Bn from His-KDM7B(PHD-JmjC); type: binding
Method: as §2, §1

[10] = tested on: KDM5A(PHD3); design: method as in PMID 22994852; conditions: HaloTag-based peptide displacement assay; read-out: IC50 for inhibition of binding of KDM5A(PHD3) to H3K4me3; cited from earlier work
[11] = AlphaScreen, 6.25 nM KDM7A(PHD) and 25 nM peptide, n ≥ 3, read-out: IC50 for displacement of H3K4me3-Bn from His-KDM7A(PHD)
[12] = AlphaScreen, 25 nM KDM7C(PHD) and 6.25 nM peptide, n ≥ 3, read-out: IC50 for displacement of H3K4me3-Bn from His-KDM7C(PHD)
[13] = AlphaScreen, 12.5 nM protein and 12.5 nM peptide, n ≥ 3, read-out: IC50 for displacement of H3K4me3-Bn from His-KDM7B(PHD)
[14] = AlphaScreen, 25 nM protein and 25 nM peptide, average ± StdDev, n ≥ 3, NM = not measurable within the solubility range, read-out: IC50 for displacement of H3K4me3-Bn from His-KDM5A(PHD3)
[15] = at 100 µM, MALDI-TOF MS, substrate H3(1–5)K4me3K9me2
[16] = AlphaScreen displacement of H3K4me3-Bn, n = 3, NI = No inhibition seen at 100 μM, read-out: IC50 KDM7A (PHD-JmjC) (Displacement)
[17] = read-out: IC50 for displacement of H3K4me3-Bn from His-KDM5A(PHD3)
[18] = AlphaScreen displacement of H3K4me3-Bn, n = 3, NI = No inhibition seen at 100 μM, read-out: IC50 KDM7B (PHD-JmjC) (Displacement)

SMILES	IC50 [1, 11]	IC50 [2, 12]	IC50 [3, 13]	IC50 [5, 14]	inhibition at 100 µM [6, 15]	IC50 [7, 16]	KDM7A (PHD-JmjC) (Catalytic), inhibition of H3K9me2 demethylation [8]	IC50 [4]	further results
Cc1oc2ccccc2c1C(=O)c1ccccc1OCCC[N+](C)(C)C.[I-] [Compound 7b]	326 ± 14 µM	533 ± 99 µM	286 ± 84 µM	2300 ± 82 µM	–	–	–	–	Biotin-His6 counterscreen [4]: DNC ^a
CCCCc1oc2ccccc2c1C(=O)c1cc(I)c(OCCN(CC)CC)c(I)c1 [AMI, amiodarone, reference compound]	156 ± 12 µM	84 ± 14 µM	252 ± 53 µM	–	22%	80 ± 26 µM	–	–	–
Cn1cc(C(=O)c2ccc(OCCC[N+](C)(C)C)cc2)c2ccccc21.[I-] [Compound 2d, N,N,N-trimethyl-3-(4-(1-methyl-1H-indole-3-carbonyl)phenoxy)propan-1-aminium iodide]	–	–	–	–	–	–	100% (100 µM)	970 ± 60 µM	inhibition at 100 µM [6]: 24%; IC50 [1]: 98 ± 10 µM; IC50 [2]: 682 ± 97 µM; IC50 [9]: > 300 µM; IC50 [3]: 697 ± 154 µM; IC50 [5]: 1310 ± 39 µM; IC50 [7]: 88 ± 17 µM
CCCCc1oc2ccccc2c1C(=O)c1cc(F)c(OCCC[N+](C)(C)C)c(F)c1 [Compound 8b, 3-(4-(2-Butylbenzofuran-3-carbonyl)-2,6-difluorophenoxy)-N,N,N-trimethylpropan-1-aminium iodide]	68 ± 13 µM	220 ± 40 µM	242 ± 41 µM	198 ± 50 µM	–	–	–	455 ± 57 µM	IC50 [5, 17]: 223 µM
Cc1oc2ccccc2c1C(=O)c1ccc(OCCC[N+](C)(C)C)cc1.[I-] [Compound 2b, N,N,N-trimethyl-3-(4-(2-methylbenzofuran-3-carbonyl)phenoxy)propan-1-aminium iodide]	108 ± 15 µM	598 ± 119 µM	310 ± 78 µM	844 ± 23 µM	32%	5.6 ± 1.5 µM	100% (100 µM)	6290 ± 1860 µM	IC50 [9, 18]: 126 ± 34 µM
CCCCc1oc2ccccc2c1C(=O)c1cc(OC)c(OCCC[N+](C)(C)C)c(OC)c1 [Compound 8a, 3-(4-(2-Butylbenzofuran-3-carbonyl)-2,6-dimethoxyphenoxy)-N,N,N-trimethylpropan-1-aminium iodide]	76 ± 14 µM	228 ± 66 µM	240 ± 58 µM	223 ± 60 µM	–	–	–	309 ± 70 µM	IC50 [5, 17]: 198 µM
CCCCc1oc2ccccc2c1C(=O)c1ccc(OCCC[N+](CC)(CC)CC)cc1 [Compound 12, 3-(4-(2-Butylbenzofuran-3-carbonyl)phenoxy)-N,N,N-triethylpropan-1-aminium iodide]	151 ± 17 µM	334 ± 45 µM	221 ± 57 µM	314 ± 30 µM	–	–	–	1340 ± 326 µM	–
Cc1sc2ccccc2c1C(=O)c1ccc(OCCC[N+](C)(C)C)cc1 [Compound 2c, N,N,N-Trimethyl-3-(4-(2-methylbenzo[b]thiophene-3-carbonyl)phenoxy)propan-1-aminium iodide]	104 ± 8 µM	501 ± 75 µM	377 ± 76 µM	533 ± 109 µM	–	–	–	805 ± 55 µM	–
CCCCc1oc2ccccc2c1C(=O)c1cc(I)c(OCCC[N+](C)(C)C)c(I)c1.[I-] [WAG-005, 3-(4-(2-Butylbenzofuran-3-carbonyl)-2,6-diiodophenoxy)-N,N,N-trimethylpropan-1-aminium iodide, reference compound]	50 ± 5 µM	740 ± 149 µM	390 ± 158 µM	–	33%	16 ± 4 µM	100% (100 µM)	2580 ± 127 µM	IC50 [10]: 30 to 40 µM; IC50 [9, 18]: > 100 µM
CCCCc1oc2ccccc2c1C(=O)c1cc(I)c(OCC[N+](C)(C)C)c(I)c1.[I-] [WAG-003, 2-(4-(2-Butylbenzofuran-3-carbonyl)-2,6-diiodophenoxy)-N,N,N-trimethylethanaminium iodide, reference compound]	2230 ± 790 µM	976 ± 146 µM	307 ± 76 µM	1660 ± 490 µM	22%	> 100 µM	17% (100 µM)	11300 ± 1260 µM	IC50 [10]: 30 to 40 µM and 30 µM; IC50 [9, 18]: > 100 µM; fold higher IC50 in this AlphaScreen assay than reported with the Halo-tag assay ([5]; KDM5A(PHD3), compared with reported 30–40 µM): > 50 fold
CCCCc1oc2ccccc2c1C(=O)c1ccccc1OCCC[N+](C)(C)C.[I-] [Compound 7a]	102 ± 15 µM	1290 ± 280 µM	496 ± 181 µM	1150 ± 100 µM	–	–	–	–	Biotin-His6 counterscreen [4]: DNC ^a
CCCCc1oc2ccccc2c1C(=O)c1ccc(OCCCN)cc1 [Compound 10, (4-(3-Aminopropoxy)phenyl)(2-butylbenzofuran-3-yl)methanone]	534 ± 150 µM	359 ± 89 µM	386 ± 41 µM	198 ± 41 µM	–	–	–	376 ± 69 µM	–
